Reference: patent publication US12281057B2 (VERTEX PHARMACEUTICALS INCORPORATED, priority 2017, dated 2025)

Target: truncated form of human NaV 1.8 with full channel activity (Homo sapiens, UniProt Q9Y5Y9)
Test: E-VIPR Assay Method A for detecting and measuring Nav inhibition (HEK cells, membrane potential FRET dyes, electrical stimulation)
Format: cell-based
Conditions: HEK cells expressing human NaV 1.8, HS (human serum) in compound loading buffer, 11 point dose response, top dose 3 μM, Table 20A, read-out: Nav 1.8 MedChem Optical Assay EVIPR Assay Method A HS IC50
In short: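 HEK cells expressing truncated human NaV1.8, loaded with CC2-DMPE/DiSBAC6(3) FRET dyes, incubated 30 min at room temp with compound (0.625% DMSO), then electrically stimulated (1.25 A biphasic, 10 Hz, 10 s). Inhibition from 460/580 nm ratio Rf/Ri, normalised to positive and DMSO controls.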

Sequence of truncated form of human NaV 1.8 with full channel activity (Q9Y5Y9 126-1722 limits assumed): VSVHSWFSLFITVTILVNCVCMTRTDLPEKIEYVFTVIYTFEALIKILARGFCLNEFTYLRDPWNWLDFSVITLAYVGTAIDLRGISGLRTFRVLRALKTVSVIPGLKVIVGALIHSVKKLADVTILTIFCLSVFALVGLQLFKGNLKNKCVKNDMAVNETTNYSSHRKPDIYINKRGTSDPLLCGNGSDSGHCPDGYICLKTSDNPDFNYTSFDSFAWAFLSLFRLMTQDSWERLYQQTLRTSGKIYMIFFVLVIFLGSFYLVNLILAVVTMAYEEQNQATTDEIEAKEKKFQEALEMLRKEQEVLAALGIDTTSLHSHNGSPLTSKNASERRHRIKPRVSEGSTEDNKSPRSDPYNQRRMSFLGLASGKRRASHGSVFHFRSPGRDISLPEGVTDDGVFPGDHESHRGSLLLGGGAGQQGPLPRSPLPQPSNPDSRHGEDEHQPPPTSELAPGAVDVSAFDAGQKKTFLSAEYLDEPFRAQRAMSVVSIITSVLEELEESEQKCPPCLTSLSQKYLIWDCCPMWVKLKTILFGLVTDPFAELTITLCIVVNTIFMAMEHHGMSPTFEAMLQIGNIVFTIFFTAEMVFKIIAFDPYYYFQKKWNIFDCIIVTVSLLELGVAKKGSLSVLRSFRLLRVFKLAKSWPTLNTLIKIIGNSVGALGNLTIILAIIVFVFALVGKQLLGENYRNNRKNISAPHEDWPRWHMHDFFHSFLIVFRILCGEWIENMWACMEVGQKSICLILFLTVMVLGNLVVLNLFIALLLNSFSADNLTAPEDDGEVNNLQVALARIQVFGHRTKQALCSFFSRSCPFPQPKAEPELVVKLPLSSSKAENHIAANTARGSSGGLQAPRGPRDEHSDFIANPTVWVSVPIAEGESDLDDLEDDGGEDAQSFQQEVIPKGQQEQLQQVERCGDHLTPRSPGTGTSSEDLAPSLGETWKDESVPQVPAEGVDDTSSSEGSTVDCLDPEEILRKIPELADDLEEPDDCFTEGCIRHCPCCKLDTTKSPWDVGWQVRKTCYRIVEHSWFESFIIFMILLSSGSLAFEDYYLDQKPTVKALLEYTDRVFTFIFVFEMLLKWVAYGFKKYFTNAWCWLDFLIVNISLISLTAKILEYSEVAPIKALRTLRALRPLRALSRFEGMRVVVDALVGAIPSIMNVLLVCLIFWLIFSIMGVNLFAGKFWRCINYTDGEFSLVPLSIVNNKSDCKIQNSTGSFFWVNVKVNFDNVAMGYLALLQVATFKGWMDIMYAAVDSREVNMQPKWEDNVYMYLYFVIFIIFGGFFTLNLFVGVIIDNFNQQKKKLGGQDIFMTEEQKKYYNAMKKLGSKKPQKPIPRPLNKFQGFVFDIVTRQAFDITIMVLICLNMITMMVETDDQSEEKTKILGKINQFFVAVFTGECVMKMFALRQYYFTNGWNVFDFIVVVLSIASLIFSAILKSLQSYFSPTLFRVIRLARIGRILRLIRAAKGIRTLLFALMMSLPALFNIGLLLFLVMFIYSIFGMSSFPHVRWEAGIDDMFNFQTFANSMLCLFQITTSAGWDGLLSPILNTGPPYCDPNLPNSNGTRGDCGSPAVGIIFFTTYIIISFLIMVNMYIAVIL

Row | IC50 | Structure (SMILES)
1 | 5 nM | COc1cc(OC(F)(F)F)ccc1Oc1ccc(C(F)(F)F)c(F)c1C(=O)Nc1cc(C(N)=O)ncc1F [Compound 123, 5-Fluoro-4-[[2-fluoro-6-[2-methoxy-4-(trifluoromethoxy)phenoxy]-3-(trifluoromethyl)benzoyl]amino]pyridine-2-carboxamide]
2 | > 3100 nM | COc1cc(F)ccc1-c1cnc(C(F)(F)F)cc1C(=O)Nc1ccc(F)c(C(N)=O)c1 [Compound 200, N-(3-carbamoyl-4-fluoro-phenyl)-5-(4-fluoro-2-methoxy-phenyl)-2-(trifluoromethyl)pyridine-4-carboxamide]
3 | 18 nM | NC(=O)c1cc(NC(=O)c2c(Oc3ccc(OC(F)(F)F)cc3)cc(OCc3ccccc3)c(C(F)(F)F)c2F)ccc1F [Compound 215, 4-Benzyloxy-N-(3-carbamoyl-4-fluoro-phenyl)-2-fluoro-6-[4-(trifluoromethoxy)phenoxy]-3-(trifluoromethyl)benzamide]
4 | 48 nM | COc1cc(OC(F)(F)F)ccc1Oc1cc(C2(C(F)(F)F)CC2)ncc1C(=O)Nc1ccnc(C(N)=O)c1 [Compound 119, N-(2-Carbamoyl-4-pyridyl)-4-[2-methoxy-4-(trifluoromethoxy)phenoxy]-6-[1-(trifluoromethyl)cyclopropyl]pyridine-3-carboxamide]
5 | 64 nM | COc1cc(OC(F)(F)F)ccc1Oc1cc(C(C)(C)F)ncc1C(=O)Nc1ccnc(C(N)=O)c1 [Compound 104, N-(2-Carbamoyl-4-pyridyl)-6-(1-fluoro-1-methyl-ethyl)-4-[2-methoxy-4-(trifluoromethoxy)phenoxy]pyridine-3-carboxamide]
6 | 112 nM | COc1cc(OC(F)(F)F)ccc1Oc1cc(C(F)(F)F)ncc1C(=O)Nc1cccc(C(N)=O)c1 [Compound 29, N-(3-Carbamoylphenyl)-4-[2-methoxy-4-(trifluoromethoxy)phenoxy]-6-(trifluoromethyl)pyridine-3-carboxamide]
7 | 410 nM | NC(=O)c1cc(NC(=O)c2c(Oc3ccc(OC(F)(F)F)cc3)cc(C(F)(F)F)cc2C(F)(F)F)ccn1 [Compound 160, 4-[[2-[4-(Trifluoromethoxy)phenoxy]-4,6-bis(trifluoromethyl)benzoyl]amino]pyridine-2-carboxamide]
8 | 48 nM | NC(=O)c1cc(NC(=O)c2c(Oc3ccc(OC(F)(F)F)cc3)ccc(C(F)F)c2F)ccn1 [Compound 83, 4-[[3-(Difluoromethyl)-2-fluoro-6-[4-(trifluoromethoxy)phenoxy]benzoyl]amino]pyridine-2-carboxamide]
9 | 560 nM | NC(=O)c1cc(NC(=O)c2cc(OC(F)(F)F)ccc2Oc2ccc(OC(F)(F)F)cc2)ccn1 [Compound 156, 4-[[5-(Trifluoromethoxy)-2-[4-(trifluoromethoxy)phenoxy]benzoyl]amino]pyridine-2-carboxamide]
10 | 32 nM | NC(=O)c1cc(NC(=O)c2c(Oc3ccc(OC(F)(F)F)cc3)ccc3c2CCC3(F)F)ccc1F [Compound 190, N-(3-Carbamoyl-4-fluoro-phenyl)-1,1-difluoro-5-[4-(trifluoromethoxy)phenoxy]indane-4-carboxamide]
11 | 68 nM | NC(=O)c1cc(NC(=O)c2c(Oc3ccc(OC(F)(F)F)cc3)ccc(C(F)(F)F)c2F)ccc1Cl [Compound 134, N-(3-carbamoyl-4-chloro-phenyl)-2-fluoro-6-[4-(trifluoromethoxy)phenoxy]-3-(trifluoromethyl)benzamide]
12 | 12 nM | [2H]C([2H])([2H])Oc1cc(OC(F)(F)F)ccc1Oc1cc(OC(F)(F)F)cc(F)c1C(=O)Nc1ccnc(C(N)=O)c1 [Compound 172, 4-[[2-Fluoro-6-[2-(trideuteriomethoxy)-4-(trifluoromethoxy)phenoxy]-4-(trifluoromethoxy)benzoyl]amino]pyridine-2-carboxamide]
13 | 88 nM | [2H]C([2H])([2H])Oc1cc(OC(F)(F)F)ccc1Oc1cc(OC(F)F)cc(F)c1C(=O)Nc1ccc(C(N)=O)nc1 [Compound 174, 5-[[4-(Difluoromethoxy)-2-fluoro-6-[2-(trideuteriomethoxy)-4-(trifluoromethoxy)phenoxy]benzoyl]amino]pyridine-2-carboxamide]
14 | 8 nM | COc1cc(Oc2ccc(OC(F)(F)F)cc2)c(C(=O)Nc2ccc(F)c(C(N)=O)c2)c(F)c1C(F)(F)F [Compound 216, N-(3-Carbamoyl-4-fluoro-phenyl)-2-fluoro-4-methoxy-6-[4-(trifluoromethoxy)phenoxy]-3-(trifluoromethyl)benzamide]
15 | 2 nM | COc1cc(OC(F)(F)F)ccc1Oc1ccc(C(F)(F)F)c(OC)c1C(=O)Nc1ccc(F)c(C(N)=O)c1 [Compound 92, N-(3-Carbamoyl-4-fluoro-phenyl)-2-methoxy-6-[2-methoxy-4-(trifluoromethoxy)phenoxy]-3-(trifluoromethyl)benzamide]
16 | 135 nM | NC(=O)c1cc(F)cc(NC(=O)c2c(Oc3ccc(OC(F)(F)F)cc3)ccc(C(F)(F)F)c2F)c1 [Compound 101, N-(3-carbamoyl-5-fluoro-phenyl)-2-fluoro-6-[4-(trifluoromethoxy)phenoxy]-3-(trifluoromethyl)benzamide]

Row | IC50 | Structure (SMILES)
17 | 400 nM | NC(=O)c1cc(NC(=O)c2cnc(C3CC3)cc2Oc2ccc(OC(F)(F)F)c(F)c2)ccc1F [Compound 42, N-(3-Carbamoyl-4-fluoro-phenyl)-6-cyclopropyl-4-[3-fluoro-4-(trifluoromethoxy)phenoxy]pyridine-3-carboxamide]
18 | 200 nM | COc1cc(OC(F)(F)F)ccc1Oc1cc([C@H]2C[C@@H]2C)ncc1C(=O)Nc1ccnc(C(N)=O)c1 (single isomer, unassigned) [Compound 111]
19 | 40 nM | COc1cc(OC(F)(F)F)ccc1Oc1cc(C2CC2)ncc1C(=O)Nc1ccc(F)c(C(N)=O)c1 [Compound 43, N-(3-Carbamoyl-4-fluoro-phenyl)-6-cyclopropyl-4-[2-methoxy-4-(trifluoromethoxy)phenoxy]pyridine-3-carboxamide]
20 | 250 nM | COc1ncccc1Oc1cc(Cl)c(Cl)cc1C(=O)Nc1ccc(F)c(C(N)=O)c1 [Compound 35, N-(3-carbamoyl-4-fluoro-phenyl)-4,5-dichloro-2-[(2-methoxy-3-pyridyl)oxy]benzamide]
21 | 3 nM | [2H]C([2H])([2H])Oc1c(Oc2ccc(OC(F)(F)F)c(F)c2C(=O)Nc2ccnc(C(N)=O)c2)ccc(OC(F)(F)F)c1F [Compound 225, 4-[[2-Fluoro-6-[3-fluoro-2-(trideuteriomethoxy)-4-(trifluoromethoxy)phenoxy]-3-(trifluoromethoxy)benzoyl]amino]pyridine-2-carboxamide]
22 | 600 nM | COc1cc(OC(F)(F)F)ccc1Oc1cc(Cl)cc(OC)c1C(=O)Nc1ccc(C(N)=O)nc1 [Compound 204, 5-[[4-Chloro-2-methoxy-6-[2-methoxy-4-(trifluoromethoxy)phenoxy]benzoyl]amino]pyridine-2-carboxamide]
23 | 54 nM | [2H]C([2H])([2H])Oc1cc(OC(F)(F)F)ccc1Oc1ccc(C(F)(F)F)c(F)c1C(=O)Nc1ccc(C(N)=O)cn1 [Compound 212, 6-[[2-Fluoro-6-[2-(trideuteriomethoxy)-4-(trifluoromethoxy)phenoxy]-3-(trifluoromethyl)benzoyl]amino]pyridine-3-carboxamide]
24 | 22 nM | COc1cc(OC(F)(F)F)ccc1Oc1cc(C2(C)CC2)ncc1C(=O)Nc1ccc(F)c(C(N)=O)c1 [Compound 102, N-(3-Carbamoyl-4-fluoro-phenyl)-4-[2-methoxy-4-(trifluoromethoxy)phenoxy]-6-(1-methylcyclopropyl)pyridine-3-carboxamide]
25 | 1200 nM | COc1cc(OC(F)(F)F)ccc1Oc1cnc(C2CC2)c(F)c1C(=O)Nc1ccc(F)c(C(N)=O)c1 [Compound 46, N-(3-Carbamoyl-4-fluoro-phenyl)-2-cyclopropyl-3-fluoro-5-[2-methoxy-4-(trifluoromethoxy)phenoxy]pyridine-4-carboxamide]
26 | 9 nM | COc1cc(OC(F)(F)F)ccc1Oc1ccc(C(F)(F)F)c(F)c1C(=O)Nc1cc(F)cc(C(N)=O)c1 [Compound 100, N-(3-carbamoyl-5-fluoro-phenyl)-2-fluoro-6-[2-methoxy-4-(trifluoromethoxy)phenoxy]-3-(trifluoromethyl)benzamide]
27 | 180 nM | COc1cc(OC(F)(F)F)ccc1Oc1cc2c(cc1C(=O)Nc1ccnc(C(N)=O)c1)OC(F)(F)O2 [Compound 121, 4-[[2,2-Difluoro-6-[2-methoxy-4-(trifluoromethoxy)phenoxy]-1,3-benzodioxole-5-carbonyl]amino]pyridine-2-carboxamide]
28 | 44 nM | COc1cc(OC(F)(F)F)ccc1Oc1cc(C2(C)CC2)ncc1C(=O)Nc1ccnc(C(N)=O)c1 [Compound 105, N-(2-Carbamoyl-4-pyridyl)-4-[2-methoxy-4-(trifluoromethoxy)phenoxy]-6-(1-methylcyclopropyl)pyridine-3-carboxamide]
29 | 215 nM | NC(=O)c1cc(NC(=O)c2cnc(C3CC3)cc2Oc2ccc(OC(F)(F)F)c(Cl)c2)ccc1F [Compound 36, N-(3-Carbamoyl-4-fluoro-phenyl)-4-[3-chloro-4-(trifluoromethoxy)phenoxy]-6-cyclopropyl-pyridine-3-carboxamide]
30 | 56 nM | NC(=O)c1cc(NC(=O)c2c(Oc3ccc(OC(F)(F)F)nc3)ccc(C(F)(F)F)c2F)ccc1F [Compound 69, N-(3-carbamoyl-4-fluoro-phenyl)-2-fluoro-6-[[6-(trifluoromethoxy)-3-pyridyl]oxy]-3-(trifluoromethyl)benzamide]
31 | 63 nM | COc1cc(OC(F)(F)F)ccc1Oc1cc(C(C)(C)C)ncc1C(=O)Nc1ccnc(C(N)=O)c1 [Compound 93, 6-tert-Butyl-N-(2-carbamoyl-4-pyridyl)-4-[2-methoxy-4-(trifluoromethoxy)phenoxy]pyridine-3-carboxamide]
